Test results as given in US6465457B1 (priority 1991, dated 2002).

Key:
Type in all cases: in vivo
[1] = tested on: Erysiphe graminis tritici (Wheat); test: Foliar fungal disease test on plants: Erysiphe graminis tritici (Wheat); conditions: 100 ppm a.i. foliar spray or root drench (approx. 40 ppm in dry soil); plants inoculated 24 hours before treatment
[2] = tested on: Septoria nodorum (Wheat); test: Foliar fungal disease test on plants: Septoria nodorum (Wheat); conditions: 100 ppm a.i. foliar spray or root drench (approx. 40 ppm in dry soil), one or two days before inoculation
[3] = tested on: Puccinia recondita (Wheat); test: Foliar fungal disease test on plants: Puccinia recondita (Wheat); conditions: 100 ppm a.i. foliar spray or root drench; plants inoculated with Puccinia recondita 48 hours before treatment
[4] = tested on: Plasmopara viticola (Vines); test: Foliar fungal disease test on plants: Plasmopara viticola (Vines); conditions: 100 ppm a.i. foliar spray or root drench (approx. 40 ppm in dry soil), one or two days before inoculation
[5] = tested on: Phytophthora infestans (Tomatoes); conditions: 100 ppm a.i. foliar spray or root drench (approx. 40 ppm in dry soil), one or two days before inoculation
[6] = tested on: Pyricularia oryzae (Rice); conditions: 100 ppm a.i. foliar spray or root drench (approx. 40 ppm in dry soil), one or two days before inoculation
[7] = tested on: Venturia inaequalis (Apples); test: Foliar fungal disease test on plants: Venturia inaequalis (Apples); conditions: 100 ppm a.i. foliar spray or root drench (approx. 40 ppm in dry soil), one or two days before inoculation
[8] = tested on: Thanatephorus cucumeries (Rice); test: Foliar fungal disease test on plants: Thanatephorus cucumeries (Rice); conditions: 100 ppm a.i. foliar spray or root drench (approx. 40 ppm in dry soil), one or two days before inoculation

Row | Structure (SMILES) | POCO (Percentage of Control) disease level, Erysiphe graminis tritici (Wheat) [1] | POCO (Percentage of Control) disease level, Septoria nodorum (Wheat) [2] | POCO (Percentage of Control) disease level, Puccinia recondita (Wheat) [3] | POCO (Percentage of Control) disease level, Plasmopara viticola (Vines) [4] | POCO (Percentage of Control) disease level, Phytophthora infestans (Tomatoes) [5] | POCO (Percentage of Control) disease level, Pyricularia oryzae (Rice) [6] | POCO (Percentage of Control) disease level, Venturia inaequalis (Apples) [7] | POCO (Percentage of Control) disease level, Thanatephorus cucumeries (Rice) [8]
1 | COC=C(C(=O)OC)c1ccccc1COC(=O)N(C)c1ccccc1C(=O)OC [33 (2)] | 0 (0 = 0% disease present) | 90 (90 and 94 = 60.1-100% disease present) | 90+ (90 and 94 = 60.1-100% disease present) | 10 (10 = 5.1-10% disease present) | 90 (90 and 94 = 60.1-100% disease present) | 30 (30 = 20.1-30% disease present) | 60 (60 = 30.1-60% disease present) | 60 (60 = 30.1-60% disease present)
2 | COC=C(C(=O)OC)c1ccccc1COC(=O)Nc1ccc(F)c(Cl)c1 [104 (1)] | 90 (90 and 94 = 60.1-100% disease present) | 90 (90 and 94 = 60.1-100% disease present) | 90+ (90 and 94 = 60.1-100% disease present) | 60 (60 = 30.1-60% disease present) | 90 (90 and 94 = 60.1-100% disease present) | 90 (90 and 94 = 60.1-100% disease present) | 90 (90 and 94 = 60.1-100% disease present) | 90 (90 and 94 = 60.1-100% disease present)
3 | COC=C(C(=O)OC)c1ccccc1COC(=O)N(C)c1ccc(F)c(Cl)c1 [104 (2)] | 0 (0 = 0% disease present) | 0 (0 = 0% disease present) | 0+ (0 = 0% disease present) | 0 (0 = 0% disease present) | 10 (10 = 5.1-10% disease present) | 0 (0 = 0% disease present) | 0 (0 = 0% disease present) | 0 (0 = 0% disease present)
4 | COC=C(C(=O)OC)c1ccccc1COC(=O)Nc1ccc(F)c([N+](=O)[O-])c1 [105 (1)] | 30 (30 = 20.1-30% disease present) | 90 (90 and 94 = 60.1-100% disease present) | 90+ (90 and 94 = 60.1-100% disease present) | 90 (90 and 94 = 60.1-100% disease present) | 90 (90 and 94 = 60.1-100% disease present) | 60 (60 = 30.1-60% disease present) | 20 (20 and 24 = 10.1-20% disease present) | 60 (60 = 30.1-60% disease present)
5 | COC=C(C(=O)OC)c1ccccc1COC(=O)N(C)c1ccc(F)c([N+](=O)[O-])c1 [105 (2)] | 0 (0 = 0% disease present) | 90 (90 and 94 = 60.1-100% disease present) | 90+ (90 and 94 = 60.1-100% disease present) | 0 (0 = 0% disease present) | 0 (0 = 0% disease present) | 5 (5 = 3.1-5% disease present) | 10 (10 = 5.1-10% disease present) | 0 (0 = 0% disease present)
6 | CCN(C(=O)OCc1ccccc1C(=COC)C(=O)OC)c1ccc(F)c([N+](=O)[O-])c1 [105 (3)] | 90 (90 and 94 = 60.1-100% disease present) | 90 (90 and 94 = 60.1-100% disease present) | 90+ (90 and 94 = 60.1-100% disease present) | 0 (0 = 0% disease present) | 0 (0 = 0% disease present) | 60 (60 = 30.1-60% disease present) | 0 (0 = 0% disease present) | 20 (20 and 24 = 10.1-20% disease present)
